# Data from patent US11401264B2, “Heterocyclic compound” (Orizuru Therapeutics, Inc., priority 2018, dated 2022).
# System: cardiomyocytes from double knock-in human iPS cell lines (mCherry at TNNI3 locus)
# Test: Experimental Example 1: mCherry (TNNI3 reporter) immunostaining measured by high contents screening
# Type: cell-based
# Parameters: key to average fluorescent intensity (at 30 μM): —: The symbol in Table 2 means that the average fluorescent intensity cannot be evaluated due to cell decrease
# Conditions: read on 8th day, Alexa 647 anti-mCherry, control well 797
# In short: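 Double knock-in iPS lines (EmGFP at TNNI1, mCherry at TNNI3) differentiated as embryoid bodies in stirred bioreactor at 37 °C, 5% O2: BMP4/activin A/bFGF, then VEGF, IWP-3, dorsomorphin, SB431542, then VEGF alone. On day 14, dissociated cells seeded at 1.0×10^4 cells/well on iMatrix-511 in AK02-based cardiomyocyte medium.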
compound,measurement,setting,value
"O=C1c2ccc(N3CCOCC3)cc2CN1c1ccc2[nH]c(-c3ccc(Br)cc3)nc2c1 [Example 8, 2-(2-(4-bromophenyl)-1H-benzimidazol-5-yl)-5-(morpholin-4-yl)isoindolin-1-one]",average fluorescent intensity (at 1 μM),test compound 1 μM added on 3rd and 6th culture days,985
same,average fluorescent intensity (at 30 μM),test compound 30 μM added on 3rd and 6th culture days,—
